Reference: ChEMBL document CHEMBL4819024, “Synthesis and evaluation of andrographolide derivatives as potent anti-osteoporosis agents in vitro and in vivo” (Eur J Med Chem, 2021)
Activity calls are given as the source filed them. No cut-off for these calls is given here.

Legend:
BMMC [1] = experiment: Anti-osteoporosis activity in C57BL/6 mouse BMM cells assessed as inhibition of M-CSF/RANKL-induced osteoclastogenesis by measuring reduction in multinucleated TRAP+ cells incubated for 5 days with media replenishment for every 48 hrs measured by TRAP-staining based analysis; format: functional, cell-based; conditions: C57BL/6, BMMC
[2] = Cytotoxicity against C57BL/6 mouse BMM cells assessed as reduction in cell viability measured after 48 hrs in presence of M-CSF by CCK8 assay; format: cell-based, BMMC; conditions: BMM cells (bone marrow-derived)
BMMC [3] = experiment: Anti-osteoporosis activity in C57BL/6 mouse BMM cells assessed as inhibition of M-CSF/RANKL-induced bone resorption by measuring suppression of reabsorbing pits formation after 48 hrs by hydroxyapatite assay using Leica inverted microscope; format: functional, cell-based; conditions: dose 1-10 µM
Mus musculus [4] = experiment: Antiosteoporotic activity against OVX-induced bone loss C57BL/6 mouse model assessed as increase in bone volume/total bone volume in femoral metaphysis at 10 mg/kg, po QD for 4 weeks; format: functional, organism-based; conditions: dose 10.0 mg/kg/day
Mus musculus [5] = experiment: Antiosteoporotic activity against OVX-induced bone loss C57BL/6 mouse model assessed as increase in trabecular thickness in femoral metaphysis at 10 mg/kg, po QD for 4 weeks; format: functional, organism-based; conditions: dose 10.0 mg/kg/day
Mus musculus [6] = experiment: Antiosteoporotic activity against OVX-induced bone loss C57BL/6 mouse model assessed as increase in trabecular number in femoral metaphysis at 10 mg/kg, po QD for 4 weeks; format: functional, organism-based; conditions: dose 10.0 mg/kg/day
Mus musculus [7] = experiment: Antiosteoporotic activity against OVX-induced bone loss C57BL/6 mouse model assessed as decrease in trabecular spacing in femoral metaphysis at 10 mg/kg, po QD for 4 weeks; format: functional, organism-based; conditions: dose 10.0 mg/kg/day
Mus musculus [8] = experiment: Antiosteoporotic activity against OVX-induced bone loss C57BL/6 mouse model assessed as decrease in ACP5 level in serum at 10 mg/kg, po QD for 4 weeks; format: functional, organism-based; conditions: dose 10.0 mg/kg/day

Row | Compound | IC50 (BMMC [1]) [nM] | other results
1 | C=C1CC[C@@H]2[C@](C)(CNCc3ccc(C)cc3)[C@H](O)CC[C@@]2(C)[C@@H]1/C=C/C1=CCOC1=O | 740 | –
2 | C=C1CC[C@@H]2[C@](C)(CNCCc3ccc(C(F)(F)F)cc3)[C@H](O)CC[C@@]2(C)[C@@H]1/C=C/C1=CCOC1=O | 2980 | –
3 | C=C1CC[C@@H]2[C@](C)(CNCCc3ccccc3)[C@H](O)CC[C@@]2(C)[C@@H]1/C=C/C1=CCOC1=O | 1020 | –
4 | C=C1CC[C@H]2[C@@](C)(CC[C@@H](O)[C@@]2(C)C(=O)NCc2ccc(Br)cc2)[C@@H]1/C=C/C1=CCOC1=O | 3450 | –
5 | C=C1CC[C@@H]2[C@](C)(CNCc3ccc(OC)c(OC)c3)[C@H](O)CC[C@@]2(C)[C@@H]1/C=C/C1=CCOC1=O | 3740 | –
6 | C=C1CC[C@@H]2[C@](C)(CNCc3cccc(OC)c3)[C@H](O)CC[C@@]2(C)[C@@H]1/C=C/C1=CCOC1=O | 780 | –
7 | NCCCC(O)(P(=O)(O)O)P(=O)(O)O [ALENDRONATE SODIUM] | 1710 | –
8 | C=C1CC[C@@H]2[C@](C)(CO)[C@H](O)CC[C@@]2(C)[C@@H]1/C=C/C1=CCOC1=O | 8340 | CC50 at 48 h [2]: > 30000 nM
9 | C=C1CC[C@@H]2[C@](C)(CNCCc3ccc(F)cc3)[C@H](O)CC[C@@]2(C)[C@@H]1/C=C/C1=CCOC1=O | 480 | –
10 | C=C1CC[C@@H]2[C@](C)(CNCCc3cccs3)[C@H](O)CC[C@@]2(C)[C@@H]1/C=C/C1=CCOC1=O | 3020 | –
11 | C=C1CC[C@@H]2[C@](C)(CNCc3ccncc3)[C@H](O)CC[C@@]2(C)[C@@H]1/C=C/C1=CCOC1=O | 2030 | –
12 | C=C1CC[C@H]2[C@@](C)(CC[C@@H](O)[C@@]2(C)C(=O)NCCc2ccccc2)[C@@H]1/C=C/C1=CCOC1=O | > 30000 | –
13 | C=C1CC[C@H]2[C@@](C)(CC[C@@H](O)[C@@]2(C)C(=O)NCCc2ccc(OC)cc2)[C@@H]1/C=C/C1=CCOC1=O | > 30000 | –
14 | C=C1CC[C@@H]2[C@](C)(CNCc3ccc([N+](=O)[O-])cc3)[C@H](O)CC[C@@]2(C)[C@@H]1/C=C/C1=CCOC1=O | 1340 | –
15 | C=C1CC[C@@H]2[C@](C)(CNCc3ccc(Br)cc3)[C@H](O)CC[C@@]2(C)[C@@H]1/C=C/C1=CCOC1=O | 430 | –
16 | C=C1CC[C@H]2[C@@](C)(CC[C@@H](O)[C@@]2(C)C(=O)NCc2ccc(OC)cc2)[C@@H]1/C=C/C1=CCOC1=O | 6530 | –
17 | C=C1CC[C@H]2[C@@](C)(CC[C@@H](O)[C@@]2(C)C(=O)NCc2ccccc2)[C@@H]1/C=C/C1=CCOC1=O | 19400 | –
18 | C=C1CC[C@@H]2[C@](C)(CNCc3ccc(OC)cc3)[C@H](O)CC[C@@]2(C)[C@@H]1/C=C/C1=CCOC1=O | 750 | –

Row | Compound | IC50 (BMMC [1]) [nM] | other results
19 | C=C1CC[C@@H]2[C@](C)(CO)[C@H](O)CC[C@@]2(C)[C@@H]1C/C=C1/C(=O)OC[C@H]1O [ANDROGRAPHOLIDE] | 1010 | CC50 at 48 h [2]: 10300 nM; Activity (BMMC [3]): Active; Activity (Mus musculus [4]): Active; Activity (Mus musculus [5]): Active; Activity (Mus musculus [6]): Active; Activity (Mus musculus [7]): Active; Activity (Mus musculus [8]): Active
20 | C=C1CC[C@@H]2[C@](C)(CNCCc3cccc(OC)c3)[C@H](O)CC[C@@]2(C)[C@@H]1/C=C/C1=CCOC1=O | 5450 | –
21 | C=C1CC[C@@H]2[C@](C)(CNCCc3ccc(OC)cc3)[C@H](O)CC[C@@]2(C)[C@@H]1/C=C/C1=CCOC1=O | 1880 | –
22 | C=C1CC[C@@H]2[C@](C)(CNCc3ccco3)[C@H](O)CC[C@@]2(C)[C@@H]1/C=C/C1=CCOC1=O | 1830 | –
23 | C=C1CC[C@H]2[C@@](C)(CC[C@@H](O)[C@@]2(C)C(=O)NCCc2ccc(F)cc2)[C@@H]1/C=C/C1=CCOC1=O | > 30000 | –
24 | C=C1CC[C@H]2[C@@](C)(CC[C@@H](O)[C@@]2(C)C(=O)NCCc2cccs2)[C@@H]1/C=C/C1=CCOC1=O | > 30000 | –
25 | C=C1CC[C@@H]2[C@](C)(CNCc3ccc(Cl)cc3)[C@H](O)CC[C@@]2(C)[C@@H]1/C=C/C1=CCOC1=O | 420 | –
26 | C=C1CC[C@@H]2[C@](C)(CNCc3nccs3)[C@H](O)CC[C@@]2(C)[C@@H]1/C=C/C1=CCOC1=O | 700 | –
27 | C=C1CC[C@@H]2[C@](C)(CO)[C@H](O)CC[C@@]2(C)[C@@H]1CCC1C(=O)OC[C@H]1O (stereo partly drawn) | > 30000 | CC50 at 48 h [2]: > 30000 nM
28 | C=C1CC[C@@H]2[C@](C)(CO)[C@H](O)CC[C@@]2(C)[C@@H]1C/C=C1\C=COC1=O | 2770 | CC50 at 48 h [2]: 20600 nM
29 | C=C1CC[C@@H]2[C@](C)(CNCc3ccc(C#N)cc3)[C@H](O)CC[C@@]2(C)[C@@H]1/C=C/C1=CCOC1=O | 1130 | –
30 | C=C1CC[C@@H]2[C@](C)(CNCc3cccs3)[C@H](O)CC[C@@]2(C)[C@@H]1/C=C/C1=CCOC1=O | 1070 | –
31 | C=C1CC[C@@H]2[C@](C)(CNCc3ccc4c(c3)CC=N4)[C@H](O)CC[C@@]2(C)[C@@H]1/C=C/C1=CCOC1=O | 550 | –
32 | C=C1CC[C@@H]2[C@](C)(CNCc3ccc(O)c(O)c3)[C@H](O)CC[C@@]2(C)[C@@H]1/C=C/C1=CCOC1=O | 9440 | –
33 | C=C1CC[C@@H]2[C@](C)(CNCCc3ccc(C)cc3)[C@H](O)CC[C@@]2(C)[C@@H]1/C=C/C1=CCOC1=O | 870 | –
34 | C=C1CC[C@@H]2[C@](C)(CO)[C@H](O)CC[C@@]2(C)[C@@H]1C/C=C(/C(=O)O)[C@H](O)CO | > 30000 | CC50 at 48 h [2]: > 30000 nM
35 | C=C1CC[C@@H]2[C@](C)(CNCc3ccccc3)[C@H](O)CC[C@@]2(C)[C@@H]1/C=C/C1=CCOC1=O | 960 | –
36 | C=C1CC[C@@H]2[C@](C)(CO)[C@H](O)CC[C@@]2(C)[C@@H]1CC=O | > 30000 | CC50 at 48 h [2]: > 30000 nM
